Values of other authors in US20190076366A1, “PHARMACEUTICAL COMPOSITION OF ENTECAVIR AND PROCESS OF MANUFACTURING” (Pharmascience, Inc., priority 2012, published 2019).

Key:
[1] = 25°±0.5° C.

C=C1C(n2cnc3c(=O)[nH]c(N)nc32)C[C@H](O)[C@H]1CO (stereo partly drawn) [Entecavir, 2-amino-l,9-dihydro-9-[(1S,3R,4S)-4-hydroxy-3-(hydroxymethyl)-2-methylenecyclopentyl]-6H-purin-6-one, monohydrate]
pH of the saturated solution in water [1]: 7.9
water solubility (in water): 2400 µg/mL
solubility in purified water (purified water): 2400 µg/mL
